Laboratory results taken from paper PMC3135787 (Antiviral research, 2011).
Where “and” joins values, the source holds several entries; their conditions need not be identical. Equal entries are not always repeated. Where two headings read alike, the source gives them in different places.

Columns and labels:
[1] = system: HepG2 cells; test: Lactic acid production, HepG2; conditions: 7 days, normalised to rDNA
[2] = system: primary human hepatocytes; test: Metabolism of [3H]-PSI-353661 in primary human hepatocytes; type: in vitro ADME; conditions: 5 μM [3H]-PSI-353661, up to 24 hours
[3] = system: genotype 1b replicon (Con1 strain); test: HCV replicon assay, genotype 1b Con1; type: cell-based; conditions: GT1b_Con1 replicon, four days
[4] = system: genotype 2a J6/JFH-1 subgenomic replicon; test: HCV replicon assay, genotype 2a J6/JFH-1; type: cell-based; conditions: GT2a_JFH-1 replicon, four days
[5] = system: ET replicon with NS5B C316Y; test: microbe, parasite or virus in culture; type: cell-based, HCV
[6] = system: ET-Lunet replicon cells; test: HCV replicon clearance and rebound study; type: cell-based; conditions: for clearance of replicon RNA (colony formation after 14 days G418 without compound): 14 days treatment
[7] = system: Clone A wild type replicon; test: Cross resistance: Clone A wild type replicon, RT-PCR; type: cell-based, HCV; conditions: read-out: EC90 WT replicon; Clone A wild type replicon, RT-PCR assay
[8] = system: HepG2 cells; test: 8-day MTS cytotoxicity assay, HepG2; type: cell-based, human; conditions: HepG2, eight days, MTS
[9] = system: CEM cells; test: 8-day MTS cytotoxicity assay, CEM; type: cell-based, human; conditions: CEM, eight days, MTS
[10] = system: ET replicon with NS5B S96T/N142T; test: microbe, parasite or virus in culture; type: cell-based, HCV
[11] = target: T1, recombinant human ADAL1 (Homo sapiens, UniProt Q6DHV7); test: ADAL1-mediated demethylation assay; type: biochemical; conditions: ADAL1, pH 6.7, 37°C
T1 sequence (Q6DHV7 1-355): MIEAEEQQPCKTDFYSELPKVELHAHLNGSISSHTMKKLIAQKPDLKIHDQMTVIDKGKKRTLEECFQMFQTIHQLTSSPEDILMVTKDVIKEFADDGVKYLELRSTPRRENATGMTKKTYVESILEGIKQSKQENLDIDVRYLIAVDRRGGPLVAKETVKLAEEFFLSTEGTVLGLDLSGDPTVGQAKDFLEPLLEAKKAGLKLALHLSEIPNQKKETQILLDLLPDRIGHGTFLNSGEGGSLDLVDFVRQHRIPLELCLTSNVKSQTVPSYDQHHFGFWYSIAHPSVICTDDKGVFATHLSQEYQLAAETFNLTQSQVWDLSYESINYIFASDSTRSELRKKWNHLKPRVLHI

[12] = system: genotype 1a H77 subgenomic replicon; test: HCV replicon assay, genotype 1a H77; type: cell-based; conditions: GT1a_H77 replicon, four days
[13] = system: HepG2 cells; test: Mitochondrial COXII DNA and ribosomal DNA by real time PCR, HepG2; type: cell-based, human; conditions: HepG2 cells; for CC90: fourteen days
[14] = system: CEM cells; test: Mitochondrial COXII DNA and ribosomal DNA by real time PCR, CEM; type: cell-based, human; conditions: CEM cells; for CC90: fourteen days
[15] = system: HCV 2a JFH-1 infectious virus; test: Infectious virus assay, genotype 2a; type: cell-based; conditions: GT2a_JFH-1 infectious virus, En5-3 cells, three days
[16] = system: ET replicon with NS5B M414T; test: microbe, parasite or virus in culture; type: cell-based, HCV
[17] = system: CEM cells; test: Lactic acid production, CEM; conditions: 7 days, normalised to rDNA
[18] = system: Clone A replicon with NS5B S282T; test: microbe, parasite or virus in culture; type: cell-based, HCV
[19] = system: myeloid progenitor cells (CFU-GM); test: Human bone marrow stem cell toxicity, 14-day colony formation, myeloid; type: cell-based; conditions: read-out: IC50, myeloid progenitor cells (CFU-GM); 14-day colony formation assay
[20] = system: HCV 1a H77Sv2 infectious virus; test: Infectious virus assay, genotype 1a; type: cell-based; conditions: GT1a_H77 infectious virus, En5-3 cells, three days
[21] = system: BxPC3 cells; test: 8-day MTS cytotoxicity assay, BxPC3; type: cell-based, human; conditions: BxPC3, eight days, MTS
[22] = target: human cathepsin A (Cat A) (Homo sapiens, UniProt P10619); test: Hydrolysis of the carboxyl ester by cathepsin A; type: biochemical; conditions: CatA, 100 μM substrate, 37 °C
Chain of human cathepsin A (Cat A) (P10619 29-326 limits assumed): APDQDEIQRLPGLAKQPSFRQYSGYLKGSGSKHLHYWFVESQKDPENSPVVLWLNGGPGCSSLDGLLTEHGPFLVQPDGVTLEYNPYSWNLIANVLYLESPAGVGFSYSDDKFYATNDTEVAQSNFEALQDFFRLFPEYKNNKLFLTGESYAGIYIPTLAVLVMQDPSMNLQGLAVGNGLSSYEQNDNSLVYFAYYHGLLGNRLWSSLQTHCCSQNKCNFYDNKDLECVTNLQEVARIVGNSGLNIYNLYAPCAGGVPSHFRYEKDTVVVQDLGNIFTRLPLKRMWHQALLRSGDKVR
Chain of human cathepsin A (Cat A) (P10619 327-480 limits assumed): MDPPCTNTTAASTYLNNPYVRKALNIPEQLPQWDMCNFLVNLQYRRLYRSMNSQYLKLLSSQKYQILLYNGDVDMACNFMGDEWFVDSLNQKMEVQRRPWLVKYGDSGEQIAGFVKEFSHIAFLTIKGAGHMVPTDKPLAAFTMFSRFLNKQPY

[23] = system: ET replicon with NS5B M423T; type: cell-based, HCV
[24] = target: human carboxylesterase 1 (CES-1) (Homo sapiens, UniProt P23141); test: Hydrolysis of the carboxyl ester by carboxylesterase 1; type: biochemical
Chain of human carboxylesterase 1 (CES-1) (P23141 18-567): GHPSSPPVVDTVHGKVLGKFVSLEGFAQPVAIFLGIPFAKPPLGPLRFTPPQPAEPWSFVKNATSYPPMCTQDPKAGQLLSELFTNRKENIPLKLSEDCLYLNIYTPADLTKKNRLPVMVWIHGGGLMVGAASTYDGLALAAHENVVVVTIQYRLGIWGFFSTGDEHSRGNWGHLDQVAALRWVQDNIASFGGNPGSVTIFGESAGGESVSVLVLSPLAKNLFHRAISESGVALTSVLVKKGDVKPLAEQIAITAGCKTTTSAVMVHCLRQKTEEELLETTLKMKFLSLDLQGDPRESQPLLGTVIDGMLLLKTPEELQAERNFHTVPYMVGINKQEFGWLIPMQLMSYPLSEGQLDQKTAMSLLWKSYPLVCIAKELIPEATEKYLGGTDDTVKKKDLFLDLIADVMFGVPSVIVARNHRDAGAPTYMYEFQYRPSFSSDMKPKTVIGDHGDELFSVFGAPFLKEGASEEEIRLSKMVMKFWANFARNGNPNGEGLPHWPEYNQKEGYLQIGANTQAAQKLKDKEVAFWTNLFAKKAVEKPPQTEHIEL

[25] = system: ET replicon with NS5B P495L; test: microbe, parasite or virus in culture; type: cell-based, HCV
[26] = system: Huh7 cells; test: 8-day MTS cytotoxicity assay, Huh7; type: cell-based, human; conditions: Huh7, eight days, MTS
[27] = system: genotype 1b ET replicon, wild type; type: cell-based, HCV; conditions: read-out: EC90 WT replicon
[28] = system: erythroid progenitor cells (CFU-E and BFU-E); test: Human bone marrow stem cell toxicity, 14-day colony formation, erythroid; type: cell-based; conditions: read-out: IC50, erythroid progenitor cells (CFU-E and BFU-E); 14-day colony formation assay

SMILES: COc1nc(N)nc2c1ncn2[C@@H]1O[C@H](COP(=O)(N[C@@H](C)C(=O)OC(C)C)Oc2ccccc2)[C@@H](O)[C@@]1(C)F (stereo partly drawn) [PSI-353661, (S)-2-{(S)-[(1R,4R,5R)-5-(2-amino-6-methoxy-purin-9-yl)-4-(R)-fluoro-3-hydroxy-4-methyl-tetrahydro-furan-2-ylmethoxy]-phenoxy-phosphorylamino}-propionic acid isopropyl ester]
- Lactic acid (Fold change from untreated cells) ([1]; 0.1 μM): 1.2 ± 0.35
- Lactic acid (Fold change from untreated cells) ([1]; 1.0 μM): 1.2 ± 0.29
- Lactic acid (Fold change from untreated cells) ([1]; 10 μM): 1.1 ± 0.06
- Lactic acid (Fold change from untreated cells) ([1]; 50 μM): 1.3 ± 0.31
- intracellular level of parent compound [2]: undetectable
- EC50 [3]: 3 ± 1.4 nM
- EC90 [3]: 8.5 ± 0.7 nM
- EC50 [4]: 6.5 ± 2.1 nM
- EC90 [4]: 14 ± 1.4 nM
- EC90 fold change [5]: 0.8
- EC90 ([5]; read-out: EC90 Mutant replicon, C316Y, luciferase-based assay): 9.8 ± 3.5 nM
- reduction of HCV replicon RNA ([6]; 8 nM (2× EC50), end of first 14-days, no G418): 1 log
- decrease in HCV replicon RNA ([6]; 20 nM dose, end of first 14-days, no G418): > 4 log
- clearance of replicon RNA (colony formation after 14 days G418 without compound) ([6]; 20 nM): partial clearance
- HCV RNA level ([6]; 40 and 80 nM doses, by day 10): undetectable
- clearance of replicon RNA (colony formation after 14 days G418 without compound) ([6]; 40 and 80 nM): completely eliminated the replicon
- EC50 ([6]; read-out: EC50 value, ET-Lunet replicon cells, value used to set clearance doses): 4 nM
- EC90 [7]: 9 nM and 9.3 nM
- CC50 [8]: > 100000 nM
- CC50 [9]: > 100000 nM
- EC90 fold change [10]: 0.7
- EC90 ([10]; read-out: EC90 Mutant replicon, S96T/N142T, luciferase-based assay): 8.7 ± 3.7 nM
- Km [11]: No activity
- kcat [11]: No activity
- kcat / Km [11]: No activity
- EC50 [12]: 4.5 ± 0.7 nM
- EC90 [12]: 10.5 ± 0.7 nM
- effect on mitochondrial DNA content ([13]; up to 100 μM, 14 days): did not affect mitochondrial DNA content
- CC90 ([13]; read-out: CC90 mtDNA): > 100000 nM
- CC90 ([13]; read-out: CC90 rDNA): > 100000 nM
- effect on mitochondrial DNA content ([14]; up to 100 μM, 14 days): did not affect mitochondrial DNA content
- CC90 ([14]; read-out: CC90 mtDNA): > 100000 nM
- CC90 ([14]; read-out: CC90 rDNA): > 100000 nM
- EC50 [15]: 1.6 nM
- EC90 [15]: 11.2 nM
- EC90 fold change [16]: 1.0
- EC90 ([16]; read-out: EC90 Mutant replicon, M414T, luciferase-based assay): 12 ± 2.2 nM
- Lactic acid (Fold change from untreated cells) ([17]; 0.1 μM): 1.4 ± 0.36
- Lactic acid (Fold change from untreated cells) ([17]; 1.0 μM): 1.4 ± 0.10
- Lactic acid (Fold change from untreated cells) ([17]; 10 μM): 1.4 ± 0.31
- Lactic acid (Fold change from untreated cells) ([17]; 50 μM): 1.3 ± 0.40
- EC90 fold change [18]: 1.5
- EC90 ([18]; read-out: EC90 Mutant replicon, S282T, RT-PCR assay): 14 ± 2.6 nM
- IC50 [19]: 45000 ± 2000 nM
- EC50 [20]: 3.5 nM
- EC90 [20]: 8.6 nM
- CC50 [21]: > 100000 nM
- specific activity of hydrolysis to PSI-353131 [22]: 0.80 µmol/min/mg
- EC90 fold change [23]: 0.8
- EC90 ([23]; read-out: EC90 Mutant replicon, M423T, luciferase-based assay): 9.7 ± 1.9 nM
- rate of hydrolysis (specific activity) ([24]; CES1, 100 μM substrate, 37 °C, not time-dependent): ~0.034 µmol/min/mg
- fraction converted to product PSI-353131 ([24]; incubation with CES1): ~10%
- EC90 fold change [25]: 1.0
- EC90 ([25]; read-out: EC90 Mutant replicon, P495L, luciferase-based assay): 12 ± 0.34 nM
- CC50 [26]: 80000 ± 6000 nM
- EC90 [27]: 12 ± 4 nM
- IC50 [28]: > 50000 nM
